Where “and” joins values, the source holds several entries; their conditions need not be identical. Identical values can stand only once. Like-named read-outs stand apart in the source and are kept apart here.
Key:
K-Ras G13C = K-Ras G13C (Homo sapiens (Human), UniProt P01116+P62937, G13C); experiment: Ras-Raf (BRAF RBD) disruption / FRET / MOA assay, KRAS G13C; assay type: biochemical
Outline: (§1)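 Ternary complex formation (Ras–compound–cyclophilin A) displacing BRAF RBD, monitored by TR-FRET. Three hours at 25° C with compound (top 30 μM final), then 1.5 h with the labelled antibodies. Lower ratio than DMSO indicates disruption; IC50 reported.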

KRAS G13D = KRAS G13D (Homo sapiens (Human), UniProt P01116+P62937, G13D); experiment: Ras-Raf (BRAF RBD) disruption / FRET / MOA assay, KRAS G13D; assay type: biochemical; details: read-out: IC50* KRAS G13D FRET data
Chain of KRAS G13D (P01116-2 other isoform, or with tags, fused parts or gaps G13D): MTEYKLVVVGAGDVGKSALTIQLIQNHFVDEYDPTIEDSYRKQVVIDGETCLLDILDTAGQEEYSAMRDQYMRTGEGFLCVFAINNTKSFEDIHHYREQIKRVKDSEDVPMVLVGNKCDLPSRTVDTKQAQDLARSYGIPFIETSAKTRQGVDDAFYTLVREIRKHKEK
Chain of KRAS G13D (P62937 whole entry): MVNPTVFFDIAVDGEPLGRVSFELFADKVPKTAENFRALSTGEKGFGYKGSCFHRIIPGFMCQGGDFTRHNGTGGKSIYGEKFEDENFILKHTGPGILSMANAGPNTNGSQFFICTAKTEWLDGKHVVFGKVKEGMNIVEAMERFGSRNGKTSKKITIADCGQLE
Outline: as §1

KRAS G12V = KRAS G12V (Homo sapiens (Human), UniProt P01116+P62937, G12V); experiment: Ras-Raf (BRAF RBD) disruption / FRET / MOA assay, KRAS G12V; assay type: biochemical; details: read-out: IC50* KRAS G12V FRET data
Chain of KRAS G12V (P01116-2 other isoform, or with tags, fused parts or gaps G12V): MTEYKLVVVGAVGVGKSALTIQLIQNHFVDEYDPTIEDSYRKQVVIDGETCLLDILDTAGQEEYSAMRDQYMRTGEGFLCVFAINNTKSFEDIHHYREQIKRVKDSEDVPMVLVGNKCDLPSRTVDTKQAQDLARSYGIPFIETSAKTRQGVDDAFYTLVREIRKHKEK
Chain of KRAS G12V (P62937 whole entry): as the sequence (P62937 whole entry) above
Outline: as §1

KRAS G12D = KRAS G12D (Homo sapiens (Human), UniProt P01116+P62937, G12D); experiment: Ras-Raf (BRAF RBD) disruption / FRET / MOA assay, KRAS G12D; assay type: biochemical; details: Ras-Raf disruption/FRET/MOA assay; class symbols; read-out: KRAS G12D FRET data IC50
Chain of KRAS G12D (P01116-2 other isoform, or with tags, fused parts or gaps G12D): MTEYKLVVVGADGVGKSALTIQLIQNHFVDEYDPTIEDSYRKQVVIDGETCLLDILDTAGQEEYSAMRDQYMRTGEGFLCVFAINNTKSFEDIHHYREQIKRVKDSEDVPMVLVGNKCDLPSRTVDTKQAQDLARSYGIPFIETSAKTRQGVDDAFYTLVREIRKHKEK
Chain of KRAS G12D (P62937 whole entry): as the sequence (P62937 whole entry) above
Outline: as §1

[1] = test system: NCI-H358 cells (K-Ras G12C); experiment: Potency assay: pERK in NCI-H358 cells; assay type: cell-based, human; details: Homo sapiens
Outline: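 4 h cpd, 37 °C; 10-pt 3-fold series, 10 mM DMSO top stock, duplicates. Readout pERK: AlphaLISA SureFire Ultra or In-Cell Western (IR-800CW secondary, DRAQ5 DNA stain). IC50, 4-PL fit vs log conc.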

KRAS WT = KRAS WT (Homo sapiens (Human), UniProt P01116+P62937); experiment: Ras-Raf (BRAF RBD) disruption / FRET / MOA assay, KRAS WT; assay type: biochemical; details: read-out: IC50* KRAS WT FRET data
Chain of KRAS WT (P01116-2 other isoform, or with tags, fused parts or gaps): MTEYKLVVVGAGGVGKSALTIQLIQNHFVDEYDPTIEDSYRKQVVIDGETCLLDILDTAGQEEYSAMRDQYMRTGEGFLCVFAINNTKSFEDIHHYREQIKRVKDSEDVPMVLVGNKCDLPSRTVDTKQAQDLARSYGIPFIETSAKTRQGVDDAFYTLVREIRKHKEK
Chain of KRAS WT (P62937 whole entry): as the sequence (P62937 whole entry) above
Outline: as §1

K-Ras G12C = K-Ras G12C (Homo sapiens (Human), UniProt P01116+P62937, G12C); experiment: Ras-Raf (BRAF RBD) disruption / FRET / MOA assay, KRAS G12C; assay type: biochemical
Chain of K-Ras G12C (P01116-2 other isoform, or with tags, fused parts or gaps G12C): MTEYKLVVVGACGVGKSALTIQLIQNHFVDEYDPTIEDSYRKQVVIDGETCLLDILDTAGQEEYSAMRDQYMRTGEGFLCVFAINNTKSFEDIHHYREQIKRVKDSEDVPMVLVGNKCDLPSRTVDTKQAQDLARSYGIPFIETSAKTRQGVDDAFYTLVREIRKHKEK
Chain of K-Ras G12C (P62937 whole entry): as the sequence (P62937 whole entry) above
Outline: as §1

NCI-H358 (K-Ras G12C) = experiment: CellTiter-Glo cell viability assay, NCI-H358; assay type: cell-based, human; details: Homo sapiens, NCI-H358, 120 h, NCI-H358, 5-day treatment
Outline: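 Viability of K-Ras mutant lines is measured by ATP luminescence after five days of compound treatment. Percent of DMSO control is calculated and dose-response data are fitted with a four-parameter logistic equation.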

KRAS G12S = KRAS G12S (Homo sapiens (Human), UniProt P01116+P62937, G12S); experiment: Ras-Raf (BRAF RBD) disruption / FRET / MOA assay, KRAS G12S; assay type: biochemical; details: Ras-Raf disruption/FRET/MOA assay; class symbols; read-out: KRAS G12S FRET data IC50
Chain of KRAS G12S (P01116-2 other isoform, or with tags, fused parts or gaps G12S): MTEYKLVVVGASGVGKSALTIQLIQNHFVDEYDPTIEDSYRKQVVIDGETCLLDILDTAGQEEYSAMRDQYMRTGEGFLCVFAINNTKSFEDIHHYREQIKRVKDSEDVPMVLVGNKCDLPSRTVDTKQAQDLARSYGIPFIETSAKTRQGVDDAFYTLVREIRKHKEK
Chain of KRAS G12S (P62937 whole entry): as the sequence (P62937 whole entry) above
Outline: as §1

NRAS G12C = NRAS G12C (Homo sapiens (Human), UniProt P01111+P62937, G12C); experiment: Ras-Raf (BRAF RBD) disruption / FRET / MOA assay, NRAS G12C; assay type: biochemical; details: read-out: IC50* NRAS G12C FRET data
Chain of NRAS G12C (P01111 whole entry G12C): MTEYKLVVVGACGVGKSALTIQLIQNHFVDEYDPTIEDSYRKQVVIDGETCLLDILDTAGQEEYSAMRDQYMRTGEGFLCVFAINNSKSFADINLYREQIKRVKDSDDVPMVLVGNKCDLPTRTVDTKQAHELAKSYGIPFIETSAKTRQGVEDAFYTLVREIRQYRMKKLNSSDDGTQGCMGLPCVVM
Chain of NRAS G12C (P62937 whole entry): as the sequence (P62937 whole entry) above
Outline: as §1

[2] = KRAS G13C, Ras-Raf disruption/FRET/MOA assay, read-out: IC50* KRAS G13C FRET data
[3] = NCI-H358, H358 KRAS G12C, read-out: pERK EC50
[4] = KRAS G12C, Ras-Raf disruption/FRET/MOA assay, read-out: IC50* KRAS G12C FRET data
[5] = class symbols, read-out: Additional H358 Cell Viability assay data (K-Ras G12C, IC50)

Chain of K-Ras G13C (P01116-2 other isoform, or with tags, fused parts or gaps G13C): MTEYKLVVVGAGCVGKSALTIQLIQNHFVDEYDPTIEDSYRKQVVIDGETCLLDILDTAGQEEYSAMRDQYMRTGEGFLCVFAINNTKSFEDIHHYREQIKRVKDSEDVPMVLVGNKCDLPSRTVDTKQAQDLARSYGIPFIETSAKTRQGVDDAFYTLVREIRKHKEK
Chain of K-Ras G13C (P62937 whole entry): as the sequence (P62937 whole entry) above

Structure (SMILES) | IC50 (K-Ras G13C; [2]) | IC50 (KRAS G13D) | IC50 (KRAS G12V) | IC50 (KRAS G12D) | EC50 [1, 3] [nM] | IC50 (KRAS WT) | IC50 (K-Ras G12C; [4]) | IC50 (NCI-H358 (K-Ras G12C); [5]) [nM] | IC50 (KRAS G12S) | IC50 (NRAS G12C) | IC50 (K-Ras G13C; with Cyclophilin A, BRAF RBD, read-out: FRET (K-Ras G13C) IC50) [nM] | EC50 ([1]; NCI-H358 cells, 4 hours, read-out: H358 pERK (K-Ras G12C) EC50) [nM] | IC50 (K-Ras G12C; with Cyclophilin A, BRAF RBD, read-out: FRET (K-Ras G12C) IC50) [nM] | IC50 (NCI-H358 (K-Ras G12C); read-out: H358 Cell Viability (K-Ras G12C) IC50) [nM]
CCn1c(-c2cccnc2COC)c2c3cc(ccc31)-c1cc(O)cc(c1)C[C@H](NC(=O)[C@@H](C(C)C)N(C)C(=O)[C@H]1CCN(C(=O)C#CCN3CCOCC3)C1)C(=O)N1CCC[C@H](N1)C(=O)OCC(C)(C)C2 [Example A200] | 1000 to 10000 nM | > 10000 nM | > 10000 nM | > 10000 nM | < 5000 | > 10000 nM | 10 to 100 nM | 100 to 1000 | > 10000 nM | 10 to 100 nM | – | – | – | –
CCn1c(-c2cncnc2)c2c3cc(ccc31)-c1cccc(c1)[C@@H](OC)[C@H](NC(=O)[C@H](C(C)C)N(C)C(=O)[C@H]1CCN(C(=O)C#CCN3CCOCC3)C1)C(=O)N1CCC[C@H](N1)C(=O)OCC(C)(C)C2 [Example A208] | > 10000 nM | > 10000 nM | > 10000 nM | > 10000 nM | < 5000 | > 10000 nM | 100 to 1000 nM | > 1000 | > 10000 nM | 1000 to 10000 nM | 7480 | 13 | 23 | 4
CCn1c(-c2ccccc2CN(C)C)c2c3cc(ccc31)-c1cc(O)cc(c1)C[C@H](NC(=O)[C@H](C(C)C)N(C)Cc1ccc(NC(=O)/C=C/CN(C)C)cn1)C(=O)N1CCC[C@H](N1)C(=O)OCC(C)(C)C2 [Example A213] | 100 to 1000 nM and 1000 to 10000 nM | 1000 to 10000 nM and > 10000 nM | 1000 to 10000 nM and > 10000 nM | 1000 to 10000 nM and > 10000 nM | < 5000 | 1000 to 10000 nM and > 10000 nM | 100 to 1000 nM and > 10000 nM | > 1000 | 1000 to 10000 nM and > 10000 nM | 1000 to 10000 nM and > 10000 nM | – | – | – | –
C=CC(=O)N1CC[C@H](C(=O)N(C)c2ccccc2C(=O)N[C@H]2Cc3cc(O)cc(c3)-c3ccc4c(c3)c(c(-c3cnccc3COC)n4CC)CC(C)(C)COC(=O)[C@@H]3CCCN(N3)C2=O)C1 [Example A228] | > 10000 nM | > 10000 nM | > 10000 nM | > 10000 nM | < 5000 | > 10000 nM | 1000 to 10000 nM | > 1000 | > 10000 nM | 1000 to 10000 nM | – | – | – | –
C=CC(=O)N1CC(OC[C@H](C(=O)N[C@H]2Cc3cc(O)cc(c3)-c3ccc4c(c3)c(c(-c3cccnc3COC)n4CC)CC(C)(C)COC(=O)[C@@H]3CCCN(N3)C2=O)C(C)C)C1 [Example A232] | 100 to 1000 nM | 1000 to 10000 nM | 1000 to 10000 nM | > 10000 nM | < 5000 | 1000 to 10000 nM | 100 to 1000 nM | 10 to 100 | > 10000 nM | 100 to 1000 nM | – | – | – | –
CCn1c(-c2cccnc2COC)c2c3cc(ccc31)-c1cc(O)cc(c1)C[C@H](NC(=O)[C@H](C(C)C)N(C)C(=O)[C@H]1CCN(C(=O)C#CCN3[C@H](C)COC[C@@H]3C)C1)C(=O)N1CCC[C@H](N1)C(=O)OCC(C)(C)C2 [Example A237] | 100 to 1000 nM | 1000 to 10000 nM | 100 to 1000 nM | 1000 to 10000 nM | < 5000 | 1000 to 10000 nM | 10 to 100 nM | < 10 | 100 to 1000 nM | 10 to 100 nM | – | – | – | –
CCn1c(-c2cccnc2COC)c2c3cc(ccc31)-c1cc(O)cc(c1)C[C@H](NC(=O)[C@H](C(C)C)N(C)C(=O)[C@H]1CCN(C(=O)C#CC3(N(C)C)CC3)C1)C(=O)N1CCC[C@H](N1)C(=O)OCC(C)(C)C2 [Example A238] | 100 to 1000 nM | 1000 to 10000 nM | 100 to 1000 nM | > 10000 nM | < 5000 | 1000 to 10000 nM | 10 to 100 nM | 10 to 100 | 1000 to 10000 nM | 100 to 1000 nM | – | – | – | –
CCn1c(-c2cccnc2[C@H](C)OC)c2c3cc(ccc31)-c1cc(O)cc(c1)C[C@H](NC(=O)[C@H](C(C)C)N(C)C(=O)[C@H]1CCN(C(=O)C#CCOC)C1)C(=O)N1CCC[C@H](N1)C(=O)OCC(C)(C)C2 [Example A266] | 10 to 100 nM | 100 to 1000 nM | 10 to 100 nM | 100 to 1000 nM | < 5000 | 100 to 1000 nM | < 10 nM | < 10 | 10 to 100 nM | < 10 nM | – | – | – | –

From US11566007B2, “Ras inhibitors” (Revolution Medicines, Inc., priority 2019, dated 2023)
